Measurements taken from BindingDB's records for PubMed 37866336 (The First Affiliated Hospital of China Medical University).

Experiments:
[1] = molecular target: Melatonin receptor type 1A (Homo sapiens, UniProt P48039); assay: Binding affinity to human MT1 receptor expressed in CHO cells assessed as inhibition constant by HTRF method
[2] = molecular target: T1, Melatonin receptor type 1B (Homo sapiens, UniProt P49286); assay: Binding affinity to human MT2 receptor expressed in CHO cells assessed as inhibition constant by HTRF method
T1 sequence (P49286 whole entry): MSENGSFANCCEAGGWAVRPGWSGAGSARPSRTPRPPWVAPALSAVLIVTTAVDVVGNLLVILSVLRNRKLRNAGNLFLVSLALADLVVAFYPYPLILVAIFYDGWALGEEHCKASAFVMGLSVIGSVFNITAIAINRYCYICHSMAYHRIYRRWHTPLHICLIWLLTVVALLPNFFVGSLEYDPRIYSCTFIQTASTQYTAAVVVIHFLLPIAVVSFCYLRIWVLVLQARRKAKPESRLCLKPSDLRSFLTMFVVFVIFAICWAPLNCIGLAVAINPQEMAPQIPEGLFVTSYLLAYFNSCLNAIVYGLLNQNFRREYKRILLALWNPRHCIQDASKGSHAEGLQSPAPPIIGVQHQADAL

Sequence of Melatonin receptor type 1A (P48039 whole entry): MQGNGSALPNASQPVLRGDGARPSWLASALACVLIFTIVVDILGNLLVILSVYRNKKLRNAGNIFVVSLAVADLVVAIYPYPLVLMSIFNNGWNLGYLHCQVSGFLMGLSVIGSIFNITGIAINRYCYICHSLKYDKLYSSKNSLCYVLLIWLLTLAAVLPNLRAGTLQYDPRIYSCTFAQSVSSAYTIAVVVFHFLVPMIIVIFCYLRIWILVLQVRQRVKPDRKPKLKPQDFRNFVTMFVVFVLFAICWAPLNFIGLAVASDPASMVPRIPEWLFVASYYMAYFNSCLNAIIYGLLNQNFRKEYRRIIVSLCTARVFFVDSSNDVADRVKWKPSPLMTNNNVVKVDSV

Ki [1] | Ki [2] | SMILES
0.036 µM |  | CCCn1c(NC(=O)Cc2coc3cc(OC)ccc23)nc2ccccc21 [Name not given]
 | 0.036 µM | N#CN1CC[C@@H](NC(=O)c2ccc(-c3cnc4nccn4c3)cc2F)C1 [Name not given]
